Values after ≈ are worked out from the molar mass of the structure shown. Where two headings read alike, the source gives them in different places.
What was measured:
Type in all cases: cell-based
Yarrowia lipolytica = test: MIC100 microdilution assay against Yarrowia lipolytica
Experimental: In previous research we found a good correlation between MIC values against Yarrowia lipolytica and pathogenic Candida species.
Determination of MICs against Yarrowia lipolytica (DSMZ, Braunschweig, Germany) was carried out according to lit. Yarrowia lipolytica was cultivated in AC‐agar (Sigma Aldrich). Concentration of yeast cells was determined by photometer and adjusted to a turbidity of 0.5 according to McFarland standard at 600 nm. All substances were dissolved in DMSO or methanol.
Determination of MICs (minimal inhibitory concentration) against Yarrowia lipolytica was carried out according to Lit.^[13] Concentration of yeast cells was determined by photometer and adjusted to a turbitity of 0.5 according to McFarland Standard.

C. albicans = test: MIC90 microdilution (EUCAST), C. albicans; details: Candida albicans, 24 h
Experimental: (§1) Determination of MICs (minimal inhibitory concentration) against Candida species was carried out according to the European Committee of Antifungal Susceptibility Testing. Concentration of yeast cells was determined by photometer and adjusted to a turbidity of 0.5 according to McFarland standard. MIC90 was determined by microdilution plate reader (Sunrise Tecan) at 450 nm, after 24 h incubation at 37°C. MIC90 was defined as the minimal concentration of chemical causing 90% growth inhibition, respectively. Growth inhibition of molds was determined by eye and microscopically, following EUCAST guidelines. All substances were dissolved in DMSO and diluted in RPMI 1640 medium, containing 2% glucose. All assays were carried out twice.

C. glabrata = test: MIC90 microdilution (EUCAST), C. glabrata; details: Nakaseomyces glabratus, 24 h
Experimental: as §1

C. krusei = test: MIC90 microdilution (EUCAST), C. krusei; details: Pichia kudriavzevii, 24 h
Experimental: as §1

A. fumigatus (A65) = test: MIC90 growth inhibition of molds (EUCAST), A. fumigatus (A65); details: Aspergillus fumigatus, RPMI 1640, 2% glucose, read by eye and microscopically
Experimental: Determination of MICs (minimal inhibitory concentration) against Candida species was carried out according to the European Committee of Antifungal Susceptibility Testing. Concentration of yeast cells was determined by photometer and adjusted to a turbidity of 0.5 according to McFarland standard. […] Growth inhibition of molds was determined by eye and microscopically, following EUCAST guidelines. […] All assays were carried out twice.

A. fumigatus (R16) = test: MIC90 growth inhibition of molds (EUCAST), A. fumigatus (R16); details: Aspergillus fumigatus
Experimental: as §1

A. fumigatus (R7) = test: MIC90 growth inhibition of molds (EUCAST), A. fumigatus (R7); details: Aspergillus fumigatus
Experimental: as §1

R. microsporus = test: MIC90 growth inhibition of molds (EUCAST), R. microsporus; details: Rhizopus microsporus
Experimental: as §1

R. arrhizus (oryzae) = test: MIC90 growth inhibition of molds (EUCAST), R. arrhizus (oryzae); details: Rhizopus arrhizus
Experimental: as §1

[1] = MTT cytotoxicity assay against HL 60 cells; details: human, HL-60 cells (human leukemia cells); HL 60 cell line; MTT assay; read-out: IC50 cytotoxicity
Experimental: The cytotoxicity of the active compounds was checked in an MTT assay against human HL 60 cells. […] Although, this corresponds to the MIC range that would be needed in treatment, the values are within the range observed for commonly used antimycotics such as amorolfine and posaconazole. All active compounds were evaluated for their biopharmaceutical behavior and drug‐likeness using the online program SwissADME [26] and should show oral bioavailability according to the Lipinski rules of five.
HL‐60 cells (human leukemia cells, DSM No. ACC3) were obtained from DSMZ (German Collection of Microorganisms and Cell Cultures, Braunschweig, Germany) and cultivated in RPMI 1640 medium with 10% fetal bovine serum (FBS), both from PAA Laboratories, Cölbe, Germany) without the addition of antibiotics at 37°C in a humidified atmosphere containing 5% CO2. The assay was performed according to lit.

[2] = 48 h, read-out: Biological Activity MIC Yarrowia lipolytica

CCCCN1CCC(N2CCc3cc(OC)c(OC)cc3C2)CC1 [6d, 2‐(1‐Butylpiperidin‐4‐yl)‐6,7‐dimethoxy‐1,2,3,4‐tetrahydroisoquinoline]
MIC (Yarrowia lipolytica; [2]): > 100 µg/mL
MIC (Yarrowia lipolytica; 48 h, read-out: MIC100): > 100 µg/mL
MIC90 (C. albicans): > 32 µg/mL
MIC90 (C. glabrata): > 32 µg/mL
MIC90 (C. krusei): > 32 µg/mL
MIC90 (A. fumigatus (A65)): > 32 µg/mL
MIC90 (A. fumigatus (R16)): > 32 µg/mL
MIC90 (A. fumigatus (R7)): > 32 µg/mL
MIC90 (R. microsporus): > 32 µg/mL
MIC90 (R. arrhizus (oryzae)): > 32 µg/mL
IC50 [1]: > 100 µg/mL

CCCCCCCC(=O)N1CCC(N2CCc3cc(OC)c(OC)cc3C2)CC1 [5e, 1‐[4‐(6,7‐Dimethoxy‐3,4‐dihydroisoquinolin‐2(1H)‐yl)‐piperidin‐1‐yl]‐octan‐1‐one]
MIC (Yarrowia lipolytica; [2]): > 100 µg/mL
MIC (Yarrowia lipolytica; 48 h, read-out: MIC100): > 100 µg/mL

CCCCCCCCCCCC(=O)N1CCC(N2CCC3CCCCC3C2)CC1 (racemic) [5i, (±)‐1‐[4‐(Octahydroisoquinolin‐2(1H)‐yl)‐piperidin‐1‐yl]‐dodecan‐1‐one]
MIC (Yarrowia lipolytica; [2]): > 100 µg/mL
MIC (Yarrowia lipolytica; 48 h, read-out: MIC100): > 100 µg/mL

CCCCCCCC(=O)N1CCC(N2CCc3ccccc3C2)CC1 [5b, 1‐[4‐(3,4‐Dihydroisoquinolin‐2(1H)‐yl)piperidin‐1‐yl]octan‐1‐one]
MIC (Yarrowia lipolytica; [2]): > 100 µg/mL
MIC (Yarrowia lipolytica; 48 h, read-out: MIC100): > 100 µg/mL

COc1cc2c(cc1OC)CN(C1CCN(CCC(C)CCC=C(C)C)CC1)CC2 (racemic) [6j, (±)‐2‐[1‐(3,7‐Dimethyloct‐6‐en‐1‐yl)piperidin‐4‐yl]‐6,7‐dimethoxy‐1,2,3,4‐tetrahydroisoquinoline]
MIC (Yarrowia lipolytica; [2]): 3.1 µg/mL
MIC (Yarrowia lipolytica; 48 h, read-out: MIC100): 3.1 µg/mL
MIC (Yarrowia lipolytica; read-out: MIC100 (molar value in brackets)): 7.5 µM
MIC90 (C. albicans): > 32 µg/mL
MIC90 (C. glabrata): > 32 µg/mL
MIC90 (C. krusei): 32 µg/mL (≈ 77.2 µM)
MIC90 (A. fumigatus (A65)): > 32 µg/mL
MIC90 (A. fumigatus (R16)): > 32 µg/mL
MIC90 (A. fumigatus (R7)): > 32 µg/mL
MIC90 (R. microsporus): > 32 µg/mL
MIC90 (R. arrhizus (oryzae)): > 32 µg/mL
IC50 [1]: 75 µg/mL (≈ 181 µM)

CC[C@@H]([C@H](C)O)n1ncn(-c2ccc(N3CCN(c4ccc(OC[C@@H]5CO[C@@](Cn6cncn6)(c6ccc(F)cc6F)C5)cc4)CC3)cc2)c1=O [Posaconazole, reference compound]
IC50 [1]: 5 µg/mL (≈ 7.13 µM)

COc1cc2c(cc1OC)CN(C1CCN(Cc3ccccc3)CC1)CC2 [7b, 2‐(1‐Benzylpiperidin‐4‐yl)‐6,7‐dimethoxy‐1,2,3,4‐tetrahydroisoquinoline]
MIC (Yarrowia lipolytica; [2]): > 100 µg/mL
MIC (Yarrowia lipolytica; 48 h, read-out: MIC100): > 100 µg/mL
MIC90 (C. albicans): > 32 µg/mL
MIC90 (C. glabrata): > 32 µg/mL
MIC90 (C. krusei): > 32 µg/mL
MIC90 (A. fumigatus (A65)): > 32 µg/mL
MIC90 (A. fumigatus (R16)): > 32 µg/mL
MIC90 (A. fumigatus (R7)): > 32 µg/mL
MIC90 (R. microsporus): > 32 µg/mL
MIC90 (R. arrhizus (oryzae)): > 32 µg/mL

c1ccc(CN2CCC(N3CCC4CCCCC4C3)CC2)cc1 (centres unmarked) [7c, 2‐(1‐Benzylpiperidin‐4‐yl)decahydroisoquinoline]
MIC (Yarrowia lipolytica; [2]): > 100 µg/mL
MIC (Yarrowia lipolytica; 48 h, read-out: MIC100): > 100 µg/mL

CCCCCCCCN1CCC(N2CCC3CCCCC3C2)CC1 (racemic) [6h, (±)‐2‐(1‐Octylpiperidin‐4‐yl)decahydroisoquinoline]
MIC (Yarrowia lipolytica; [2]): 3.1 µg/mL
MIC (Yarrowia lipolytica; 48 h, read-out: MIC100): 3.1 µg/mL
MIC90 (C. albicans): > 32 µg/mL
MIC90 (C. glabrata): > 32 µg/mL
MIC90 (C. krusei): 8 µg/mL (≈ 23.9 µM)
MIC90 (A. fumigatus (A65)): > 32 µg/mL
MIC90 (A. fumigatus (R16)): > 32 µg/mL
MIC90 (A. fumigatus (R7)): > 32 µg/mL
MIC90 (R. microsporus): > 32 µg/mL
MIC (R. arrhizus (oryzae); read-out: MIC90): 32 µg/mL (≈ 95.6 µM)
IC50 [1]: 75 µg/mL (≈ 224 µM)

CCCC(=O)N1CCC(N2CCC3CCCCC3C2)CC1 (racemic) [5g, (±)‐1‐[4‐(Octahydroisoquinolin‐2(1H)‐yl)‐piperidin‐1‐yl]‐butan‐1‐one]
MIC (Yarrowia lipolytica; [2]): > 100 µg/mL
MIC (Yarrowia lipolytica; 48 h, read-out: MIC100): > 100 µg/mL

CCCCCCCCCCCC(=O)N1CCC(N2CCc3cc(OC)c(OC)cc3C2)CC1 [5f, 1‐[4‐(6,7‐Dimethoxy‐3,4‐dihydroisoquinolin‐2(1H)‐yl)piperidin‐1‐yl]dodecan‐1‐one]
MIC (Yarrowia lipolytica; [2]): > 100 µg/mL
MIC (Yarrowia lipolytica; 48 h, read-out: MIC100): > 100 µg/mL

CCCCCCCC(=O)N1CCC(N2CCC3CCCCC3C2)CC1 (racemic) [5h, (±)‐1‐[4‐(Octahydroisoquinolin‐2(1H)‐yl)piperidin‐1‐yl]octan‐1‐one]
MIC (Yarrowia lipolytica; [2]): > 100 µg/mL
MIC (Yarrowia lipolytica; 48 h, read-out: MIC100): > 100 µg/mL

Source: publication PMC12531613, “Synthesis and Biological Evaluation of Novel 2‐(Piperidin‐4‐yl)‐1,2,3,4‐tetrahydroisoquinoline and 2‐(Piperidin‐4‐yl)decahydroisoquinoline Antimycotics” (Archiv Der Pharmazie, 2025)
